Test results: patent US5414144A, “Propylene glycol cyclohexyl ether derivatives, method of producing same and uses thereof” (Asahi Kasei Kogyo Kabushiki Kaisha, priority 1993, dated 1995)
Read-outs that look alike come from different tables or passages of the source.

Assays:
[1] = for Solubility (In water) / Solubility (Water in): 20° C.; for Solubility (In water): solubility of the sample compound in water; for Solubility (In water) / solubility in water: 30 min; for Solubility (Water in): solubility of water in the sample compound; for solubility in water: Table 2
Method: (3) Solubility ("water in" and "in water")
10 g of a sample compound (liquid) was mixed with 10 g of water and then allowed to stand still for 30 minutes, so that the mixture was permitted to separate into a sample compound layer and an aqueous layer. Then, the water content of the sample compound layer was measured using a Karl Fischer moisture meter manufactured by Kyoto Electronics Co., Ltd., Japan, and the obtained value was taken as a solubility of water in the sample compound. The content of the sample compound in the aqueous layer was measured using GC and the obtained value was taken as a solubility of the sample compound in water.

Flash point (JIS-K2265) = type: physicochemical
[2] = type: physicochemical
Method: The boiling point was determined from the temperature and pressure of the vapor at the top of the distillation column.

Separability from water = type: physicochemical; details: result in words
Method: (6) Separability from Water
An equivolume mixture of a sample compound and water was vigorously shaken and then allowed to stand. After a period of 5 minutes, the degree of separation of the sample compound from water was judged by the naked eye.

[3] = background, result in words; cited from earlier work
Viscosity = type: physicochemical; details: 25° C.
Method: The viscosity was measured at 25° C. using a digital viscometer (Model DVL-B, manufactured by Toki Sangyo Co., Ltd., Japan).

[4] = Oil solubility characteristics; type: physicochemical; details: 100 g sample compound
Method: (§1) 10 g of a sample compound and 10 g of a glycol ether-type detergent (Elease M-9000, manufactured by Asahi Kasei Kogyo K.K., Japan) were individually placed in an oven and heated at 50° C. for 20 minutes. Then, a measurement was done with respect to the decrease in the weight of the sample compound as well as the decrease in the weight of Elease M-9000. The relative drying rate was calculated according to the following formula: [formula] (11) Oil Solubility Characteristics
Each of the oils mentioned below was individually added to 100 g of a sample compound while stirring until a saturation of the sample compound with the oil was reached. The solubility (%) was expressed in terms of the percent expression of the weight of the oil dissolved in 100 g of the sample compound, with the dissolution of 100 g of the oil being taken as 100%. For example, when the amount of the oil dissolved was n g, the solubility was expressed as n %. The above-mentioned oils were: a mineral oil (Smoil PS-260, manufactured by Matsumura Sekiyu Kenkyusho, Japan), a drawing oil (Daphne Masterdraw 533WD, manufactured by Idemitsu Kosan Co., Ltd., Japan), a press oil (Uni Press DP-120, manufactured by Nippon Sekiyu Co., Ltd., Japan) and a rosin oil (sold by Kishida Kagaku Co., Ltd., Japan).

Relative drying rate = type: physicochemical; details: 50° C., 20 minutes; relative to Elease M-9000
Method: (10) Relative Drying Rate
as §1

[5] = Overall comparison of properties in Table 2; details: Table 2 comparison in words
Method: Properties of the product were measured and results of the measurements are shown in Table 2, together with those of Example 1 for easy comparison.

SMILES	Solubility (In water) [1] [%]	Solubility (Water in) [1] [%]	Flash point (Flash point (JIS-K2265)) [°C]	Boiling point [2] [°C]	other results
CCCCCCOCCO [Comparative Example 1, Ethylene glycol mono-n-hexyl ether]	1.0	18.8	82	208	–
CCCCCCOCCOCCO [Comparative Example 2, Diethylene glycol mono-n-hexyl ether]	–	–	140	–	separability from water (Separability from water): good
C=C(C)C1CC=C(C)CC1 (stereo not drawn) [Comparative Example 6, Limonene]	–	–	45	–	Flash point (Flash point (JIS-K2265); result in words): low; separability from water (Separability from water): good
CCCCOCCOCCO [Comparative Example 7, Diethylene glycol monobutyl ether]	–	–	116	–	solubility in water [3]: disadvantageously high; separability from water (Separability from water): poor
CCOCCOCCOCC [Comparative Example 8, Diethylene glycol diethyl ether]	–	–	72	–	solubility in water [3]: extremely high solubility in water; toxicity [3]: high toxicity; separability from water (Separability from water): poor
CC(O)COC1CCCCC1 (stereo not drawn) [Comparative Example 9, 1-cyclohexyloxy-2-propanol]	–	–	88	208	solubility in water [1]: 1%; viscosity (Viscosity): 14 cP; Oil solubility characteristics (Drawing oil) [4]: E (Less than 2%); Oil solubility characteristics (Mineral oil) [4]: A (50% or more); Oil solubility characteristics (Press oil) [4]: A (50% or more); Oil solubility characteristics (Rosin oil) [4]: C (10% to less than 20%); Relative drying rate (Relative drying rate): 36%; dissolving power for oils [3]: poor dissolving power for oils; drying rate [3]: low drying rate; solubility in water [3]: high solubility in water; viscosity [3]: high viscosity
COCC(C)OC1CCCCC1 (stereo not drawn) [Example 1, propylene glycol methyl cyclohexyl ether]	0.3	1.4	73	175	solubility in water [1]: 0.3%; results vs Comparative Example 9 (relative drying rate, viscosity, solubility in water, oil solubility) [5]: very superior; viscosity (Viscosity): 2.4 cP; Oil solubility characteristics (Drawing oil) [4]: A (50% or more); Oil solubility characteristics (Mineral oil) [4]: A (50% or more); Oil solubility characteristics (Press oil) [4]: A (50% or more); Oil solubility characteristics (Rosin oil) [4]: A (50% or more); Relative drying rate (Relative drying rate): 77%
CCOCC(C)OC1CCCCC1 (stereo not drawn) [Example 2, propylene glycol ethyl cyclohexyl ether]	0.2	0.7	80	192	–
COCC(C)OC1CCCCC1O (stereo not drawn) [Example 3, 2-hydroxycyclohexyloxymethoxypropane]	2.7	11.7	–	–	Boiling point ([2]; Measured at 5 mm/Hg): 93 °C
CCCCOCC(C)O (stereo not drawn) [compound 3, Propylene glycol mono-n-butyl ether]	5.6	14.9	59	170	–
COCC(C)OC(C)=O (stereo not drawn) [compound 4, Propylene glycol methyl ether acetate]	3.0	19.0	47	146	–
CCCCOCC(C)OCCCC (stereo not drawn) [compound 5, Propylene glycol di-n-butyl ether]	2.0	0.6	69	190	–
COCCOCCOC [diethylene glycol dimethyl ether]	–	–	–	–	solubility in water [3]: extremely high solubility in water; toxicity [3]: high toxicity
CCCCCCOCCOCCO [diethylene glycol monohexyl ether]	–	–	–	–	viscosity [3]: disadvantageously high viscosity
